PMC11702208 (RSC Advances, 2025)
Values joined by “and” are separate entries in the source; they are usually repeats but may differ in a detail not shown here. Equal values may be shown once. Read-outs that look alike come from different tables or passages of the source.

Experiments:
CCRF-CEM = test: NCI cytotoxicity screen; assay type: cell-based, human
MOLT-4 = test: NCI cytotoxicity screen; assay type: cell-based, human
RPMI-8226 = test: NCI cytotoxicity screen; assay type: cell-based, human
A549/ATCC = test: NCI cytotoxicity screen; assay type: cell-based, human
EKVX = test: NCI cytotoxicity screen; assay type: cell-based, human
HOP-92 = test: NCI cytotoxicity screen; assay type: cell-based, human
NCI-H226 = test: NCI cytotoxicity screen; assay type: cell-based, human
NCI-H23 = test: NCI cytotoxicity screen; assay type: cell-based, human
NCI-H460 = test: NCI cytotoxicity screen; assay type: cell-based, human; settings: 10.0 μM one dose
NCI-H522 = test: NCI cytotoxicity screen; assay type: cell-based, human; settings: 10.0 μM one dose
HCC-2998 = test: NCI cytotoxicity screen; assay type: cell-based, human
HCT-116 = test: NCI cytotoxicity screen; assay type: cell-based, human
HCT-15 = test: NCI cytotoxicity screen; assay type: cell-based, human
KM12 = test: NCI cytotoxicity screen; assay type: cell-based, human
SW-620 = test: NCI cytotoxicity screen; assay type: cell-based, human
SF-539 = test: NCI cytotoxicity screen; assay type: cell-based, human
SNB-75 = test: NCI cytotoxicity screen; assay type: cell-based, human; settings: 10.0 μM one dose
U251 = test: NCI cytotoxicity screen; assay type: cell-based, human; settings: U-251
LOX IMVI = test: NCI cytotoxicity screen; assay type: cell-based, human
M14 = test: NCI cytotoxicity screen; assay type: cell-based, human
MDA-MB-435 = test: NCI cytotoxicity screen; assay type: cell-based, human
SK-MEL-2 = test: NCI cytotoxicity screen; assay type: cell-based, human
SK-MEL-28 = test: NCI cytotoxicity screen; assay type: cell-based, human
SK-MEL-5 = test: NCI cytotoxicity screen; assay type: cell-based, human
UACC-257 = test: NCI cytotoxicity screen; assay type: cell-based, human; settings: 10.0 μM one dose
IGROV1 = test: NCI cytotoxicity screen; assay type: cell-based, human
OVCAR-3 = test: NCI cytotoxicity screen; assay type: cell-based, human
OVCAR-4 = test: NCI cytotoxicity screen; assay type: cell-based, human
OVCAR-8 = test: NCI cytotoxicity screen; assay type: cell-based, human
SK-OV-3 = test: NCI cytotoxicity screen; assay type: cell-based, human; settings: 10.0 μM one dose
786-0 = test: NCI cytotoxicity screen; assay type: cell-based, human
ACHN = test: NCI cytotoxicity screen; assay type: cell-based, human
RXF 393 = test: NCI cytotoxicity screen; assay type: cell-based, human
DU-145 = test: NCI cytotoxicity screen; assay type: cell-based, human
MCF7 = test: NCI cytotoxicity screen; assay type: cell-based, human
MDA-MB-231/ATCC = test: NCI cytotoxicity screen; assay type: cell-based, human
T-47D = test: NCI cytotoxicity screen; assay type: cell-based, human; settings: 10.0 μM one dose; T-47D
59 cancer cell lines = test: NCI cytotoxicity screen, full panel; assay type: cell-based, human; settings: for TGI MG_MID / GI50: full panel mean-graph midpoint; for GI50: read-out: GI50 MG_MID
NCI/ADR-RES = test: NCI cytotoxicity screen; assay type: cell-based, human; settings: Homo sapiens, five-dose
[1] = test system: NSC lung cancer subpanel tumor cell lines; test: NCI cytotoxicity screen, subpanel; assay type: cell-based, human; settings: subpanel value, NSC lung cancer
[2] = test system: Colon cancer subpanel tumor cell lines; test: NCI cytotoxicity screen, subpanel; assay type: cell-based, human; settings: subpanel value, Colon cancer
[3] = test system: Melanoma subpanel tumor cell lines; test: NCI cytotoxicity screen, subpanel; assay type: cell-based, human; settings: subpanel value, Melanoma
[4] = test system: Breast cancer subpanel tumor cell lines; test: NCI cytotoxicity screen, subpanel; assay type: cell-based, human; settings: subpanel value, Breast cancer
HL-60(TB) = test: cells; settings: Homo sapiens

NS(=O)(=O)c1ccc(Cn2c(SCC(=O)NN=Cc3ccccc3O)nc3ccccc3c2=O)cc1 [Compound 6, 4-((2-((2-(2-(2-Hydroxybenzylidene)hydrazineyl)-2-oxoethyl)thio)-4-oxoquinazolin-3(4H)-yl)methyl)benzenesulfonamide]
GI % (CCRF-CEM; 10.0 μM one dose): 77%
GI % (MOLT-4; 10.0 μM one dose): 80%
GI % (RPMI-8226; 10.0 μM one dose): 51%
GI % (A549/ATCC; 10.0 μM one dose, A549/ATCC): 31%
GI % (EKVX; 10.0 μM one dose): 40%
GI % (HOP-92; 10.0 μM one dose): 46%
GI % (NCI-H226; 10.0 μM one dose): 43%
GI % (NCI-H23; 10.0 μM one dose): 37%
GI % (NCI-H460): 51%
GI % (NCI-H522): 101%
GI % (HCC-2998; 10.0 μM one dose, HCC-2998): 50%
GI % (HCT-116; 10.0 μM one dose): 58%
GI % (HCT-15; 10.0 μM one dose): 25%
GI % (KM12; 10.0 μM one dose, KM-12): 61%
GI % (SW-620; 10.0 μM one dose): 40%
GI % (SF-539; 10.0 μM one dose): 46%
GI % (SNB-75): 15%
GI % (U251; 10.0 μM one dose): 57%
GI % (LOX IMVI; 10.0 μM one dose): 84%
GI % (M14; 10.0 μM one dose): 58%
GI % (MDA-MB-435; 10.0 μM one dose): 29%
GI % (SK-MEL-2; 10.0 μM one dose): 64%
GI % (SK-MEL-28; 10.0 μM one dose): 43%
GI % (SK-MEL-5; 10.0 μM one dose): 42%
GI % (UACC-257): 30%
GI % (IGROV1; 10.0 μM one dose, IGROV1): 38%
GI % (OVCAR-3; 10.0 μM one dose, IGROV-3): 87%
GI % (OVCAR-4; 10.0 μM one dose, IGROV-4): 60%
GI % (OVCAR-8; 10.0 μM one dose): 56%
GI % (SK-OV-3): 37%
GI % (786-0; 10.0 μM one dose): 29%
GI % (ACHN; 10.0 μM one dose): 28%
GI % (RXF 393; 10.0 μM one dose): 28%
GI % (DU-145; 10.0 μM one dose): 28%
GI % (MCF7; 10.0 μM one dose, MCF-7): 50%
GI % (MDA-MB-231/ATCC; 10.0 μM one dose, MDA-MB-231/ATCC): 70%
GI % (T-47D): 67%
MG% (mean growth percent) (59 cancer cell lines; 10.0 μM one dose, 59 cell lines): 55.2% and 55.22%

COc1cc2ncnc(Nc3ccc(F)c(Cl)c3)c2cc1OCCCN1CCOCC1 [Gefitinib, reference compound]
GI50 (CCRF-CEM; Homo sapiens): 5.01 µM
GI50 (MOLT-4; Homo sapiens): 3.98 µM
GI50 (RPMI-8226; Homo sapiens): 1.58 µM
GI50 (A549/ATCC; Homo sapiens, A549): 7.94 µM
GI50 (EKVX; Homo sapiens): 0.005 µM
GI50 (HOP-92; Homo sapiens): 7.94 µM
GI50 (NCI-H226; Homo sapiens): 15.8 µM
GI50 (NCI-H23; Homo sapiens): 15.8 µM
GI50 (HCC-2998; Homo sapiens, HCC 2998): 10 µM
GI50 (HCT-116; Homo sapiens): 7.94 µM
GI50 (HCT-15; Homo sapiens): 5.01 µM
GI50 (KM12; Homo sapiens, KM12): 7.94 µM
GI50 (SW-620; Homo sapiens): 7.94 µM
GI50 (SF-539; Homo sapiens): 10 µM
GI50 (U251; Homo sapiens): 10 µM
GI50 (LOX IMVI; Homo sapiens): 7.94 µM
GI50 (M14; Homo sapiens): 5.01 µM
GI50 (MDA-MB-435; Homo sapiens): 3.16 µM
GI50 (SK-MEL-2; Homo sapiens): 12.6 µM
GI50 (SK-MEL-28; Homo sapiens): 0.31 µM
GI50 (SK-MEL-5; Homo sapiens): 3.98 µM
GI50 (IGROV1; Homo sapiens, IGROV-1): 0.2 µM
GI50 (OVCAR-3; Homo sapiens, OVCAR-3): 5.01 µM
GI50 (OVCAR-4; Homo sapiens, OVCAR-4): 7.94 µM
GI50 (OVCAR-8; Homo sapiens): 10 µM
GI50 (NCI/ADR-RES): 12.6 µM
GI50 (786-0; Homo sapiens): 7.94 µM
GI50 (ACHN; Homo sapiens): 0.2 µM
GI50 (RXF 393; Homo sapiens): 5.01 µM
GI50 (DU-145; Homo sapiens): 2.51 µM
GI50 (MCF7; Homo sapiens, MCF7): 10 µM
GI50 (MDA-MB-231/ATCC; Homo sapiens, MDA-MB-231): 12.6 µM
GI50 ([1]; Homo sapiens): 2.1 µM
GI50 [1]: 2.05 µM
TGI [1]: 13.86 µM
GI50 ([2]; Homo sapiens): 5.2 µM
GI50 [2]: 5.23 µM
TGI [2]: 18.47 µM
GI50 ([3]; Homo sapiens): 3.7 µM
GI50 [3]: 3.68 µM
TGI [3]: 12.49 µM
GI50 ([4]; Homo sapiens): 4.7 µM
GI50 [4]: 4.67 µM
TGI [4]: 18.62 µM
CC50 (59 cancer cell lines; Homo sapiens, read-out: LC50 MG_MID, full panel mean-graph midpoint): 95.6 µM
TGI MG_MID (59 cancer cell lines): 14.3 µM
TGI MG_MID (59 cancer cell lines; listed as gefitinib): 66.3 µM
GI50 (59 cancer cell lines): 2.1 µM
GI50 (59 cancer cell lines; listed as gefitinib): 7.7 µM
GI50 (HL-60(TB)): 5.01 µM
